Patent US10004770B2, “Production and use of bacterial histamine” (BioGaia AB, priority 2011, dated 2018)
“Also recorded” adds a separate entry of the source.

Columns and labels:
[1] = system: TNF production from TLR2-activated THP-1 cells; experiment: TNF inhibition bioassay and TNF ELISA; assay type: cell-based, human; details: for block of TNF-inhibition by histamine: antagonist added before histamine 10^-5 M, ranitidine, cimetidine 10^-4-10^-6 M, indomethacin 10^-5-10^-6 M; for TNF production (TNF inhibition): THP-1 cells stimulated with 100 ng/mL Pam3Cys-SKKKK, 3.5 h, samples 5% v/v, histamine 10^-5 M, 6475 grown in glucose media (LDMIIIG)
Experimental: In vitro experiments were performed with THP-1 cells (human monocytoid cell line, ATCC, Manassas, Va.) maintained in RPMI (ATCC) and heat-inactivated fetal bovine serum (Invitrogen, Carlsbad, Calif.) at 37° C., 5% CO2. MEK1/2, phospho-MEK1/2, ERK1/2, and phospho-ERK1/2 antibodies and MEK inhibitor U0126 were received from Cell Signaling Technology (Danvers, Mass.), and the β-Actin antibody was received from Abcam (Cambridge, Mass.). All other reagents were received from Sigma (St. Louis, Mo.) unless otherwise stated.
Bacterial supernatants (10 mL) from a 24 h LDMIII culture were filter-sterilized using PVDF membrane filters (0.22 μm pore size, Millipore) and size fractionated as described above. One milliliter of the <3 kDa filtrate was speed vacuum dried and resuspended in RPMI media. These processed supernatant samples are termed conditioned media. All supernatants were normalized by volume to an OD600=1.0. Lyophilized fractions from the HILIC-HPLC separation were resuspended in 400 μL 10 mg/mL ammonium bicarbonate, speed vacuum dried, and resuspended in 400 μL RPMI media. Conditioned media and cell pellet wash fractions were tested for their ability to modulate TNF production in monocytoid cells. In brief, THP-1 cells (approximately 5×10^4 cells) were stimulated to produce TNF by the addition of 100 ng/mL Pam3Cys-SKKKK×3 HCl (EMC Microcollections, Tuebingen, Germany) as previously described. Inhibitors—H2 receptor antagonists, ranitidine and cimetidine (10^−4-10^−6 M), […], indomethacin (10^−5-10^−6 M), MEK inhibitor, U0126 (10 μM), and PKA inhibitor, H89 (N-[2-(p-bromocinnamylamino)ethyl]-5-isoquinolinesulfonamide dihydrochloride) (10^−5 M)—were added to the THP-1 cells followed by L. reuteri conditioned media or cell pellet wash fractions (5% v/v), histamine (10^−5 M), or dibutyryl cAMP (10^−3-10^−7 M). Plates were incubated at 37° C. and 5% CO2 for 3.5 h. THP-1 cells were pelleted (3000× g, 5 min, 4° C.), and quantitative ELISAs were used to determine TNF quantities in THP-1 cell supernatants according to the manufacturer's instructions (R&D Systems, Minneapolis, Minn.).

MEK1/2 = MEK1/2 activation by Western blot; assay type: cell-based, human; details: activated THP-1 cells, compared to media control
Experimental: (§1) THP-1 cells were lysed in ice-cold lysis buffer consisting of 50 mM Tris, pH 7.4, 250 mM NaCl, 5 mM EDTA, 50 mM NaF, 1 mM Na3VO4, 1% v/v Nonidet P40, 0.2% v/v NaN3, and protease and phosphatase inhibitors. Lysates were incubated on ice for 30 min, vortexed every 10 min, and cleared by centrifugation at 13,000×g for 10 min at 4° C. Protein concentrations were measured using the Quant-iT™ Protein Assay kit (Invitrogen) and a Qubit fluorometer according to the manufacturer's instructions. Equal amounts of proteins were loaded onto electrophoresis gels.
(§2) Analysis of ERK1/2 activation was performed using specific phospho-ERK1/2 antibodies. Cell extracts were loaded on a 10% SDS-polyacrylamide gel and transferred to polyvinylidene difluoride membranes (Bio-Rad, Hercules, Calif.). Membranes were blocked overnight at 4° C. in blocking buffer (Li-Cor Biosciences, Lincoln, Nebr.). After several washes, membranes were probed with ERK1/2, phospho-ERK1/2 or β-Actin specific antibodies diluted in blocking buffer (Li-Cor) for 1 h at room temperature. After washes, membranes were incubated with the appropriate horseradish peroxidase-conjugated secondary antibody for 1 h at room temperature, and blots were then developed using a chemiluminescent detection. Analysis of MEK1/2 activation was performed as described above except primary antibody incubation was overnight at 4° C.

ERK1/2 = ERK1/2 activation by Western blot; assay type: cell-based, human; details: activated THP-1 cells, compared to media control
Experimental: as §1, §2

LPS-induced liver injury = details: mouse; cited from earlier work
[2] = system: peripheral blood mononuclear cells; details: cited from earlier work
TNFR1 [3] = details: cultured human endothelial cells; cited from earlier work
TNFR1 [4] = details: injection into human skin engrafted on immunodeficient mice; cited from earlier work
[5] = system: LPS-stimulated human monocytes and macrophages; details: cited from earlier work
[6] = system: intracellular cAMP in THP-1 cells (H2 receptor signaling); experiment: Intracellular cAMP in TLR2-stimulated THP-1 cells; assay type: cell-based, human; details: THP-1 cells stimulated with TLR2 agonist
Experimental: The H2 receptor is a G protein linked receptor that can activate adenylate cyclase and increase intracellular cAMP. TNF can be inhibited at the level of transcription by cAMP and cAMP analogs. THP-1 cells were stimulated with a TLR2 agonist in the presence of a medium control, 6475 supernatant or histamine with or without an H2 receptor antagonist and intracellular levels of cAMP were measured. […] A synthetic analog of cAMP, dibutyryl cAMP (dcAMP), was added to TLR2-stimulated THP-1 cells and the effect on TNF production was monitored.

H2 receptor = target: T1, H2 receptor (Mus musculus, UniProt P97292); details: endotoxin shock (LPS challenge) and hepatitis (LPS plus galactosamine challenge); cited from earlier work
T1 construct: host or cells: living mice (endogenous receptor)

patients with IBS = details: cited from earlier work

T1 sequence (P97292 whole entry): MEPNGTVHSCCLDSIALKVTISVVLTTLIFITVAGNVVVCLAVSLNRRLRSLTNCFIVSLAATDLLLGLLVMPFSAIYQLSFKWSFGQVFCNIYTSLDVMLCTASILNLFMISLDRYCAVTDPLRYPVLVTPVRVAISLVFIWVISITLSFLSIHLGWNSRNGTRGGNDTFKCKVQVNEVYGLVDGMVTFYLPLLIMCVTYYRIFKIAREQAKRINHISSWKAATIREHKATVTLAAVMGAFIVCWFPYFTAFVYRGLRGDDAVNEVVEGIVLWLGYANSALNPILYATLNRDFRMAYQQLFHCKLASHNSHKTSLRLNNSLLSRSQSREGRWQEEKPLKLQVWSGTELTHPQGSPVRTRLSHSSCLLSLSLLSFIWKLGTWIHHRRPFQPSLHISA

Compound: Cl.Cl.O=S(=O)(NCCNCC=Cc1ccc(Br)cc1)c1cccc2cnccc12 [H89, N-[2-(p-bromocinnamylamino)ethyl]-5-isoquinolinesulfonamide dihydrochloride]
- block of TNF inhibition by PKA inhibitor ([1]; H89 10^-5 M in presence of 6475 supernatant, fraction B3, histamine or dcAMP): partially blocked TNF inhibition

Compound: CN/C(=N/CCSCc1nc[nH]c1C)NC#N [cimetidine]
- block of TNF-inhibition by histamine [1]: could block TNF-inhibition by histamine in a concentration dependent manner

Compound: N#CC(=C(/N)Sc1ccccc1N)/C(C#N)=C(\N)Sc1ccccc1N [U0126]
- phosphorylation (activation) of MEK1/2 (MEK1/2): blocks phosphorylation; also recorded: suppressed activation of MEK1/2
- TNF production ([1]; U0126 treatment for 30 min prior to TLR2 agonist stimulation): sufficient to prevent TNF production
- phosphorylation (activation) of ERK1/2 (ERK1/2): blocks phosphorylation; also recorded: suppressed activation of ERK1/2

Compound: COc1ccc2c(c1)c(CC(=O)O)c(C)n2C(=O)c1ccc(Cl)cc1 [indomethacin]
- block of TNF-inhibition by histamine [1]: no effect

Compound: NCCc1c[nH]cn1 [histamine]
- protection in LPS-induced liver injury (LPS-induced liver injury): protective
- phosphorylation (activation) of MEK1/2 (MEK1/2): blocks phosphorylation; also recorded: suppressed activation of MEK1/2
- LPS-induced synthesis of TNF-α [2]: suppressed
- TNF production (TNF inhibition) [1]: concentration dependent; also recorded: significantly inhibited TNF production
- TNF production (TNF inhibition) ([1]; listed as Histamine): significantly inhibit TNF production
- TNFR1 surface level, shedding and mobilization (TNFR1 [3]): transient loss of surface TNFR1, increased TNFR1 shedding, and mobilization of TNFR1 molecules from the Golgi
- TNFR1 shedding and TNF-mediated induction of endothelial adhesion molecules (TNFR1 [4]): caused shedding of TNFR1 and diminished TNF-mediated induction of endothelial adhesion molecules
- production of pro-inflammatory cytokines IL-1, IL-12 and TNF ([5]; LPS-stimulated human monocytes and macrophages): can inhibit production
- production of anti-inflammatory cytokine IL-10 ([5]; via the H2 receptor): can stimulate production
- phosphorylation (activation) of ERK1/2 (ERK1/2): blocks phosphorylation; also recorded: suppressed activation of ERK1/2
- intracellular cAMP [6]: increase in cAMP; also recorded: increased intracellular cAMP

Compound: CN(C)CCCSC(=N)N [dimaprit]
- plasma TNF levels (H2 receptor): reduced plasma TNF levels

Compound: CCCC(=O)Nc1ncnc2c1ncn2[C@@H]1O[C@@H]2COP(=O)(O)O[C@H]2[C@H]1OC(=O)CCC [dcAMP, dibutyryl cAMP]
- TNF production ([1]; dcAMP 10^-5-10^-3 M added to TLR2-stimulated THP-1 cells): sufficient to inhibit TNF production

Compound: CN1CCC(=C2c3ccccc3CC(=O)c3sccc32)CC1 [ketotifen]
- IBS symptoms (patients with IBS; patients with IBS): decreased IBS symptoms
- pain threshold (patients with IBS; patients with IBS): increased pain threshold
- number or activity of mast cells (histamine and tryptase release) (patients with IBS; rectal biopsy tissue): no change
